Measurements from US20260240931A1 (priority 2022, published 2026).

How the values were obtained:
[1] = test system: human hair follicle dermal papilla cells (HDPs); settings: 100 nM
Description: C57BL/6 mice (male, five weeks old) were purchased from Orient Bio. In addition, the mice were raised with sufficient water and food. The animal experiment of the present disclosure was performed in accordance with the guidelines ([…]-2021 Jul. 18-1) of the Institutional Animal Care and Use Committee (IACUC) at Sungkyunkwan University. The HDP cells were cultured in a HDP growth medium under conditions of 37° C. and 5% CO2.
Cell proliferation analysis was performed in the presence or absence of dihydrotestosterone ([…]). […] The optical density was detected at 540 nm.

[2] = test system: testosterone-induced androgenetic alopecia model; assay: testosterone-induced androgenetic alopecia model: hair growth, skin color score, hair type frequency, hair thickness; type: in vivo, C57BL/6 mice; settings: on 1 week
Description: A testosterone-induced androgenetic alopecia model was fabricated using C57BL/6 mice. C57BL/6 mice (n=6) were divided into the following five groups: Normal group, Vehicle control group: Experimental group treated with 40 μg/kg/week testosterone, Experimental group treated with 5 mg/day Cs-EE (Connarus semidecandrus Jack. extract according to the present disclosure), Experimental group treated with 10 mg/day Cs-EE, and Positive control group: Experimental group treated with 5 mg/kg/day finasteride. To confirm a hair growth promoting effect of Cs-EE, the dorsal part of each mouse was treated with hair removal cream and shaved using an electric clipper twice; seven and three days before the first testosterone treatment.
40 μg/kg of testosterone was dissolved in sesame oil and then subcutaneously injected once a week four times. Thereafter, in the case of the Cs-EE-treated experimental group, Cs-EE diluted with PBS and DMSO (ratio of 1:1) was applied to the back part of the mouse once every day for three weeks. As the positive control group, 5 mg of finasteride was treated instead of Cs-EE of the present disclosure. Two days after the testosterone injection, mice in all experimental groups were euthanized. Thereafter, the dorsal hairs were isolated from each experimental group to confirm hair type frequency and hair thickness. […]

SMILES	cytotoxicity to HDP cells (FIG. 9B) [1]	hair growth on shaved skin (FIG. 2) [2]
C[C@]12CCC(=O)C[C@@H]1CC[C@@H]1[C@@H]2CC[C@]2(C)[C@@H](O)CC[C@@H]12 [DHT, dihydrotestosterone]	cytotoxic	
CC(C)(C)NC(=O)[C@H]1CC[C@H]2[C@@H]3CC[C@H]4NC(=O)C=C[C@]4(C)[C@H]3CC[C@]12C [finasteride]		remained hairless
